From US8426408B2, “Pyrimidine inhibitors of kinases” (AbbVie Inc., priority 2009, dated 2013)

Assays:
[1] = target: T1, Aurora A (Homo sapiens, UniProt O14965); assay: Aurora A enzyme inhibition (time-resolved fluorescence, STK substrate-2); type: biochemical; details: 1 mM ATP
T1 sequence (O14965 1-403): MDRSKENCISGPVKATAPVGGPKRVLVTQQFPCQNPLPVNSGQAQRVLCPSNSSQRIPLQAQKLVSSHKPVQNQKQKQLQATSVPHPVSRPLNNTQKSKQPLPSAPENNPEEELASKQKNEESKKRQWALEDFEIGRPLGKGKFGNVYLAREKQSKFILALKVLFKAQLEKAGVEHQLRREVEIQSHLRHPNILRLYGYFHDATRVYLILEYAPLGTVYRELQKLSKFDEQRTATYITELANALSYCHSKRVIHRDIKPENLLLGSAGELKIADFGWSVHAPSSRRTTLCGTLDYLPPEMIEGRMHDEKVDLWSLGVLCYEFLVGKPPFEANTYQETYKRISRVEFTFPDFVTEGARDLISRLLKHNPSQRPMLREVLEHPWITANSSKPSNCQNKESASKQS
How it was run: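 Active enzyme incubated 1 h with biotinylated STK substrate-2, 1 mM ATP and inhibitor in Hepes pH 7.4 with MgCl2, orthovanadate and Triton X-100. EDTA stop; phosphopeptide detected by Eu-cryptate anti-phospho-STK/SA-XL665 TR-FRET (665/615 nm ratio); IC50 by exponential fit.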

[2] = target: KDR (Homo sapiens, UniProt P35968); assay: KDR HTRF in vitro kinase assay; type: biochemical; parameters: purified enzyme (His6-KDR 789-1354, MW 63 kD); His6 (N); details: 1 mM ATP; read-out: KDR enzyme inhibition data (Ki)
How it was run: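 His6-KDR 789-1354 (7 ng/well) with 0.5 μM biotinylated peptide substrate and 1 mM ATP in HEPES pH 7.1, MgCl2/MnCl2, 60 min at room temperature. EDTA-quenched, detected by streptavidin-XL-665 plus Eu-kryptate anti-phosphotyrosine HTRF after 3 h; IC50 from 620/665 nm ratio.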

[3] = target: T2, Aurora B (Homo sapiens, UniProt Q96GD4); assay: Aurora B enzyme inhibition (time-resolved fluorescence, histone H3 peptide); type: biochemical; details: 1 mM ATP
T2 construct: Active Aurora B enzyme (recombinant residues 1-344)
How it was run: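 Recombinant Aurora B (residues 1-344) with GST-INCENP phosphorylated biotinylated histone H3 (1-21) peptide at 1 mM ATP in HEPES pH 7.4 with MgCl2, orthovanadate and Triton X-100 for 1 h. After EDTA stop, the phosphopeptide was detected by TR-FRET (Eu-cryptate anti-phospho-H3 / SA-APC, 665/615 nm ratio). IC50 from an exponential fit.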

[4] = test system: NCI-H1299 cells; assay: Induction of polyploidy in H1299; type: cell-based, Human; details: NCI-H1299, 48 hours
Experimental: To determine the induction of polyploidy in H1299 cells, NCI-H1299 were seeded (4K/well) into 96-well culture plates (tissue culture grade, black, flat-clear bottom) and incubated overnight to produce cell-to-plate adherence. Inhibitors at varying concentrations were added into duplicate wells containing cells and culture media (RPMI 1640, 10% fetal calf serum) and incubated at 37 C for 48 hours. The plates were then washed with PBS and the adherent cells fixed by incubating with 3% formalin for 1 hour. After washing four times with PBS, the cells were then stained with Hoechst and subjected to fluorescent (360 i/460e) microscopic high content analysis to determine the effect of inhibitors on nuclear size. Polyploid cells (≧4N) were defined as those having nuclear area>750μ^2. Potency was expressed as the concentration of inhibitor necessary to induce polyploidy in 15% of cells (EC15) and was calculated from least squares analysis of the log dose-response.

KDR, sequence (P35968 789-1354): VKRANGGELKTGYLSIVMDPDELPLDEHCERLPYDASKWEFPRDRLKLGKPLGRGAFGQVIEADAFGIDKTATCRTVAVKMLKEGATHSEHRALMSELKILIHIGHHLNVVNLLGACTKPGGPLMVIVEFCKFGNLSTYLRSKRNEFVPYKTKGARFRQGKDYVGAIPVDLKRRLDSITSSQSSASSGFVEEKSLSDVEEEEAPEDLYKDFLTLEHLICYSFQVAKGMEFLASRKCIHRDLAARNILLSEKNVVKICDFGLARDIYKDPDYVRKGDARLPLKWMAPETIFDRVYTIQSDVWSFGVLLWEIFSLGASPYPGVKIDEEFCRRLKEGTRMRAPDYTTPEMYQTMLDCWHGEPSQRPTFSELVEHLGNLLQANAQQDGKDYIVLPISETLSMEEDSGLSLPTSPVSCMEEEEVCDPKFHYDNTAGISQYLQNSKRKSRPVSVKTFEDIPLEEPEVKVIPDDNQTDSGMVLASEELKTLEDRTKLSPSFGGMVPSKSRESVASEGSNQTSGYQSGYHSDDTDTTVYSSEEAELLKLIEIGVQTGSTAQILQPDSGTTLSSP
T2 sequence (Q96GD4 whole entry, the tested form may be a part): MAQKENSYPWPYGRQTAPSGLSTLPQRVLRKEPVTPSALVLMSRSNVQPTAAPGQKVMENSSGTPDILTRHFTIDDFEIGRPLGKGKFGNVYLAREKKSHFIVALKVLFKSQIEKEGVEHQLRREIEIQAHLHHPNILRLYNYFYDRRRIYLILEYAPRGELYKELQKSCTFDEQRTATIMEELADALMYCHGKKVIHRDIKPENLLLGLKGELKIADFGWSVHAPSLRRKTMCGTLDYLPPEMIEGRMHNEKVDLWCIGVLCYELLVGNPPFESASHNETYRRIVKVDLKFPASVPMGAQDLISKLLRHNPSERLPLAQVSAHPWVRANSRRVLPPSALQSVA
T2 sequence (Q9NQS7 826-918 partner limits assumed): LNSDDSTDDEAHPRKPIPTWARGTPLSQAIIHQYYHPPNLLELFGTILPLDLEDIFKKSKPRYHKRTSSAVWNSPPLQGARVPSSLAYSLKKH

Ki [1] [nM]	Ki [2] [nM]	Ki [3] [nM]	Structure (SMILES)	EC15 ([4]; Homo sapiens, read-out: EC15 (concentration of inhibitor necessary to induce polyploidy in 15% of cells)) [nM]	EC15 (concentration of inhibitor necessary to induce polyploidy in 15% of cells) [4]
1000 to 5000	> 5000	100 to 1000	Cn1cc(Nc2nccc(NC3C4C=CC(C4)C3C(N)=O)n2)cn1 (mixture of isomers) [Example 2, (1S,2S,3R,4R)-3-({2-[(1-methyl-1H-pyrazol-4-yl)amino]pyrimidin-4-yl}amino)bicyclo[2.2.1]hept-5-ene-2-carboxamide and (1R,2R,3S,4S)-3-({2-[(1-methyl-1H-pyrazol-4-yl)amino]pyrimidin-4-yl}amino)bicyclo[2.2.1]hept-5-ene-2-carboxamide]	< 100	–
100 to 1000	100 to 1000	< 100	NC(=O)[C@@H]1[C@H](Nc2nc(Nc3cn[nH]c3)ncc2F)[C@H]2C=C[C@@H]1C2.NC(=O)[C@H]1[C@@H](Nc2nc(Nc3cn[nH]c3)ncc2F)[C@@H]2C=C[C@H]1C2 (mixture of isomers) [Example 5, (1S,2S,3R,4R)-3-{[5-fluoro-2-(1H-pyrazol-4-ylamino)pyrimidin-4-yl]amino}bicyclo[2.2.1]hept-5-ene-2-carboxamide and (1R,2R,3S,4S)-3-{[5-fluoro-2-(1H-pyrazol-4-ylamino)pyrimidin-4-yl]amino}bicyclo[2.2.1]hept-5-ene-2-carboxamide]	–	B (“B” represents an EC15 of between 0.1 μM and 1 μM)
< 100	100 to 1000	< 100	CCn1cc(Nc2ncc(F)c(N[C@@H]3[C@H](C(N)=O)[C@H]4C=C[C@@H]3C4)n2)cn1.CCn1cc(Nc2ncc(F)c(N[C@H]3[C@@H](C(N)=O)[C@@H]4C=C[C@H]3C4)n2)cn1 (mixture of isomers) [Example 8, (1S,2S,3R,4R)-3-({2-[(1-ethyl-1H-pyrazol-4-yl)amino]-5-fluoropyrimidin-4-yl}amino)bicyclo[2.2.1]hept-5-ene-2-carboxamide and (1R,2R,3S,4S)-3-({2-[(1-ethyl-1H-pyrazol-4-yl)amino]-5-fluoropyrimidin-4-yl}amino)bicyclo[2.2.1]hept-5-ene-2-carboxamide]	–	A (“A” represents an EC15 of less than 0.1 μM)
100 to 1000	> 5000	< 100	CNC(=O)[C@@H]1[C@H](Nc2nc(Nc3cnn(C)c3)ncc2F)[C@H]2C=C[C@@H]1C2.CNC(=O)[C@H]1[C@@H](Nc2nc(Nc3cnn(C)c3)ncc2F)[C@@H]2C=C[C@H]1C2 (mixture of isomers) [Example 9, (1S,2S,3R,4R)-3-({5-fluoro-2-[(1-methyl-1H-pyrazol-4-yl)amino]pyrimidin-4-yl}amino)-N-methylbicyclo[2.2.1]hept-5-ene-2-carboxamide and (1R,2R,3S,4S)-3-({5-fluoro-2-[(1-methyl-1H-pyrazol-4-yl)amino]pyrimidin-4-yl}amino)-N-methylbicyclo[2.2.1]hept-5-ene-2-carboxamide]	–	A (“A” represents an EC15 of less than 0.1 μM)
< 100	100 to 1000	< 100	NC(=O)[C@@H]1[C@H](Nc2nc(Nc3cnn(CCO)c3)ncc2F)[C@H]2C=C[C@@H]1C2.NC(=O)[C@H]1[C@@H](Nc2nc(Nc3cnn(CCO)c3)ncc2F)[C@@H]2C=C[C@H]1C2 (mixture of isomers) [Example 11, (1S,2S,3R,4R)-3-[(5-fluoro-2-{[1-(2-hydroxyethyl)-1H-pyrazol-4-yl]amino}pyrimidin-4-yl)amino]bicyclo[2.2.1]hept-5-ene-2-carboxamide and (1R,2R,3S,4S)-3-[(5-fluoro-2-{[1-(2-hydroxyethyl)-1H-pyrazol-4-yl]amino}pyrimidin-4-yl)amino]bicyclo[2.2.1]hept-5-ene-2-carboxamide]	–	A (“A” represents an EC15 of less than 0.1 μM)
100 to 1000	100 to 1000	< 100	Cn1cc(Nc2ncc(F)c(N[C@@H]3[C@H]4CC[C@H](C4)[C@@H]3C(N)=O)n2)cn1.Cn1cc(Nc2ncc(F)c(N[C@H]3[C@@H]4CC[C@@H](C4)[C@H]3C(N)=O)n2)cn1 (mixture of isomers) [Example 12, (1R,2S,3R,4S)-3-({5-fluoro-2-[(1-methyl-1H-pyrazol-4-yl)amino]pyrimidin-4-yl}amino)bicyclo[2.2.1]heptane-2-carboxamide and (1S,2R,3S,4R)-3-({5-fluoro-2-[(1-methyl-1H-pyrazol-4-yl)amino]pyrimidin-4-yl}amino)bicyclo[2.2.1]heptane-2-carboxamide]	–	B (“B” represents an EC15 of between 0.1 μM and 1 μM)
< 100	100 to 1000	< 100	CCn1cc(Nc2ncc(F)c(N[C@@H]3[C@H]4CC[C@H](C4)[C@@H]3C(N)=O)n2)cn1.CCn1cc(Nc2ncc(F)c(N[C@H]3[C@@H]4CC[C@@H](C4)[C@H]3C(N)=O)n2)cn1 (mixture of isomers) [Example 13, (1R,2S,3R,4S)-3-({2-[(1-ethyl-1H-pyrazol-4-yl)amino]-5-fluoropyrimidin-4-yl}amino)bicyclo[2.2.1]heptane-2-carboxamide and (1S,2R,3S,4R)-3-({2-[(1-ethyl-1H-pyrazol-4-yl)amino]-5-fluoropyrimidin-4-yl}amino)bicyclo[2.2.1]heptane-2-carboxamide]	–	B (“B” represents an EC15 of between 0.1 μM and 1 μM)
100 to 1000	1000 to 5000	< 100	NC(=O)[C@@H]1[C@H]2CC[C@H](C2)[C@@H]1Nc1nc(Nc2cnn(CCO)c2)ncc1F.NC(=O)[C@H]1[C@@H]2CC[C@@H](C2)[C@H]1Nc1nc(Nc2cnn(CCO)c2)ncc1F (mixture of isomers) [Example 14, (1R,2S,3R,4S)-3-[(5-fluoro-2-{[1-(2-hydroxyethyl)-1H-pyrazol-4-yl]amino}pyrimidin-4-yl)amino]bicyclo[2.2.1]heptane-2-carboxamide and (1S,2R,3S,4R)-3-[(5-fluoro-2-{[1-(2-hydroxyethyl)-1H-pyrazol-4-yl]amino}pyrimidin-4-yl)amino]bicyclo[2.2.1]heptane-2-carboxamide]	–	B (“B” represents an EC15 of between 0.1 μM and 1 μM)
100 to 1000	100 to 1000	< 100	Cc1cnc(Nc2cnn(C)c2)nc1N[C@@H]1[C@H](C(N)=O)[C@H]2C=C[C@@H]1C2.Cc1cnc(Nc2cnn(C)c2)nc1N[C@H]1[C@@H](C(N)=O)[C@@H]2C=C[C@H]1C2 (mixture of isomers) [Example 17, (1S,2S,3R,4R)-3-({5-methyl-2-[(1-methyl-1H-pyrazol-4-yl)amino]pyrimidin-4-yl}amino)bicyclo[2.2.1]hept-5-ene-2-carboxamide and (1R,2R,3S,4S)-3-({5-methyl-2-[(1-methyl-1H-pyrazol-4-yl)amino]pyrimidin-4-yl}amino)bicyclo[2.2.1]hept-5-ene-2-carboxamide]	–	A (“A” represents an EC15 of less than 0.1 μM)
